In ChEMBL document CHEMBL3885881, “DrugMatrix”:

Species on record: Rattus norvegicus
Experiment: DrugMatrix - Regimen: Daily Repeat
Type: toxicity, organism-based, Sprague-Dawley
Set-up: regimen Daily Repeat, gender Male, age 6-8 weeks
Conditions: in vivo, po, route oral GAVAGE, vehicle 100 % SALINE; for ALBUMIN / ALKALINE PHOSPHATASE / ASPARTATE AMINOTRANSFERASE / BLOOD UREA NITROGEN / CARBON DIOXIDE / CHLORIDE / CHOLESTEROL / CREATINE PHOSPHOKINASE / CREATININE / GLUCOSE / LACTATE DEHYDROGENASE / LIPASE / PHOSPHORUS / SODIUM / TOTAL BILIRUBIN / TOTAL PROTEIN / ALANINE AMINOTRANSFERASE: tissue Plasma; for ABSOLUTE BASOPHIL / ABSOLUTE EOSINOPHIL / ABSOLUTE LYMPHOCYTE / ABSOLUTE MONOCYTE / ABSOLUTE SEGMENTED NEUTROPHIL / BASOPHIL / EOSINOPHIL / ERYTHROCYTE COUNT / HEMATOCRIT / HEMOGLOBIN / LEUKOCYTE COUNT / LYMPHOCYTE / MEAN CORPUSCULAR HEMOGLOBIN / MEAN CORPUSCULAR HEMOGLOBIN CONCENTRATION / MONOCYTE / NEUTROPHIL / NUCLEATED RED BLOOD CELLS / PLATELET COUNT: tissue Blood
[1] = 700 mg/kg, 72 h, dose level Low, time 3 day
[2] = 700 mg/kg, […], dose level Low, time 7 day
[3] = 1400 mg/kg, 72 h, dose level High, time 3 day
[4] = 1400 mg/kg, 120 h, dose level High, time 5 day

CN(C)C=O [DIMETHYLFORMAMIDE]
ALBUMIN [1]: 3.93 G/DL
ALKALINE PHOSPHATASE [1]: 282 u/L
ASPARTATE AMINOTRANSFERASE [1]: 140.33 u/L
BLOOD UREA NITROGEN [1]: 11.33 mg/dL
CARBON DIOXIDE [1]: 29.33 mmol/L
CHLORIDE [1]: 98.33 MEQ/L
CHOLESTEROL [1]: 93.83 mg/dL
CREATINE PHOSPHOKINASE [1]: 256.33 u/L
CREATININE [1]: 0.18 mg/dL
GLUCOSE [1]: 142 mg/dL
LACTATE DEHYDROGENASE [1]: 131.83 u/L
LIPASE [1]: 10.17 u/L
PHOSPHORUS [1]: 10.13 mg/dL
SODIUM [1]: 143.05 MEQ/L
TOTAL BILIRUBIN [1]: 0.2 mg/dL
TOTAL PROTEIN [1]: 5.9 G/DL
ABSOLUTE BASOPHIL [2]: 0 CELLS/uL
ABSOLUTE EOSINOPHIL [2]: 0 CELLS/uL
ABSOLUTE LYMPHOCYTE [2]: 8451.4 CELLS/uL
ABSOLUTE MONOCYTE [2]: 140.6 CELLS/uL
ABSOLUTE SEGMENTED NEUTROPHIL [2]: 648 CELLS/uL
BASOPHIL [2]: 0%
EOSINOPHIL [2]: 0%
ERYTHROCYTE COUNT [2]: 5.61 x10E6/uL
HEMATOCRIT [2]: 35.36%
HEMOGLOBIN [2]: 14.32 G/DL
LEUKOCYTE COUNT [2]: 9.24 x10E3/uL
LYMPHOCYTE [2]: 91%
MEAN CORPUSCULAR HEMOGLOBIN [2]: 25.62 pg
MEAN CORPUSCULAR HEMOGLOBIN CONCENTRATION [2]: 40.5 G/DL
MONOCYTE [2]: 1.6%
NEUTROPHIL [2]: 7.4%
NUCLEATED RED BLOOD CELLS [2]: 0 /100WBC
PLATELET COUNT [2]: 1220.6 x10E3/uL
ALANINE AMINOTRANSFERASE [2]: 100.4 u/L
ALBUMIN [2]: 4.46 G/DL
ALKALINE PHOSPHATASE [2]: 218 u/L
ASPARTATE AMINOTRANSFERASE [2]: 142.4 u/L
BLOOD UREA NITROGEN [2]: 16.4 mg/dL
CARBON DIOXIDE [2]: 30 mmol/L
CHLORIDE [2]: 98.6 MEQ/L
CHOLESTEROL [2]: 102 mg/dL
CREATINE PHOSPHOKINASE [2]: 220.4 u/L
CREATININE [2]: 0.23 mg/dL
GLUCOSE [2]: 122.8 mg/dL
LACTATE DEHYDROGENASE [2]: 232.2 u/L
LIPASE [2]: 11 u/L
PHOSPHORUS [2]: 12.18 mg/dL
SODIUM [2]: 145.44 MEQ/L
TOTAL BILIRUBIN [2]: 0.2 mg/dL
TOTAL PROTEIN [2]: 6.06 G/DL
ABSOLUTE BASOPHIL [3]: 0 CELLS/uL
ABSOLUTE EOSINOPHIL [3]: 0 CELLS/uL
ABSOLUTE LYMPHOCYTE [3]: 16367 CELLS/uL
ABSOLUTE MONOCYTE [3]: 177 CELLS/uL
ABSOLUTE SEGMENTED NEUTROPHIL [3]: 1156 CELLS/uL
BASOPHIL [3]: 0%
EOSINOPHIL [3]: 0%
ERYTHROCYTE COUNT [3]: 6.79 x10E6/uL
HEMATOCRIT [3]: 42.9%
HEMOGLOBIN [3]: 16.15 G/DL
LEUKOCYTE COUNT [3]: 17.7 x10E3/uL
LYMPHOCYTE [3]: 92.5%
MEAN CORPUSCULAR HEMOGLOBIN [3]: 23.8 pg
MEAN CORPUSCULAR HEMOGLOBIN CONCENTRATION [3]: 37.65 G/DL
MONOCYTE [3]: 1%
NEUTROPHIL [3]: 6.5%
NUCLEATED RED BLOOD CELLS [3]: 0 /100WBC
PLATELET COUNT [3]: 447 x10E3/uL
ALANINE AMINOTRANSFERASE [3]: 1328 u/L
ALBUMIN [3]: 4.1 G/DL
ALKALINE PHOSPHATASE [3]: 424 u/L
ASPARTATE AMINOTRANSFERASE [3]: 1614.5 u/L
BLOOD UREA NITROGEN [3]: 20 mg/dL
CARBON DIOXIDE [3]: 33 mmol/L
CHLORIDE [3]: 99.5 MEQ/L
CHOLESTEROL [3]: 70.5 mg/dL
CREATINE PHOSPHOKINASE [3]: 326.5 u/L
CREATININE [3]: 0.47 mg/dL
GLUCOSE [3]: 210.5 mg/dL
LACTATE DEHYDROGENASE [3]: 461 u/L
LIPASE [3]: 11 u/L
PHOSPHORUS [3]: 9 mg/dL
SODIUM [3]: 148.05 MEQ/L
TOTAL BILIRUBIN [3]: 0.35 mg/dL
TOTAL PROTEIN [3]: 5.8 G/DL
ABSOLUTE BASOPHIL [4]: 0 CELLS/uL
ABSOLUTE EOSINOPHIL [4]: 0 CELLS/uL
ABSOLUTE LYMPHOCYTE [4]: 7335 CELLS/uL
ABSOLUTE MONOCYTE [4]: 49.5 CELLS/uL
ABSOLUTE SEGMENTED NEUTROPHIL [4]: 565.5 CELLS/uL
BASOPHIL [4]: 0%
EOSINOPHIL [4]: 0%
ERYTHROCYTE COUNT [4]: 7.28 x10E6/uL
HEMATOCRIT [4]: 45.7%
